Measured values reported in patent publication US7256190B2, “Thiazole compounds useful as inhibitors of protein kinase” (Vertex Pharmaceuticals Incorporated, priority 2001, dated 2007).

What was measured:
Format in all cases: biochemical
GSK3-β (AA 1-420) = GSK3-β (AA 1-420) (Homo sapiens, UniProt P49841); test: GSK-3 inhibition assay (coupled enzyme system); conditions: 10 μM ATP, 300 μM peptide, 60 nM GSK-3β, 30° C.
Experimental: Compounds were screened for their ability to inhibit GSK3-β (AA 1-420) activity using a standard coupled enzyme system (Fox et al. (1998) Protein Sci. 7, 2249). Reactions were carried out in a solution containing 100 mM HEPES (pH 7.5), 10 mM MgCl2, 25 mM NaCl, 300 μM NADH, 1 mM DTT and 1.5% DMSO. Final substrate concentrations in the assay were 10 μM ATP (Sigma Chemicals, St Louis, Mo.) and 300 μM peptide (HSSPHQS(PO3H2)EDEEE, American Peptide, Sunnyvale, Calif.). Reactions were carried out at 30° C. and 60 nM GSK-3β. Final concentrations of the components of the coupled enzyme system were 2.5 mM phosphoenolpyruvate, 300μM NADH, 30 μg/ml pyruvate kinase and 10 μg/ml lactate dehydrogenase.
An assay stock buffer solution was prepared containing all of the reagents listed above with the exception of ATP and the test compound of interest. 59 μl of the test reaction was placed in a 96 well ½-diameter plate (Corning, Corning, N.Y.) then treated with 1 μl of a 2 mM DMSO stock containing the test compound (final compound concentration 30 μM). The plate was incubated for ˜10 minutes at 30° C. then the reaction initiated by addition of 7 μl of ATP (final concentration 10 μM). Rates of reaction were obtained using a Molecular Devices Spectramax plate reader (Sunnyvale, Calif.) over a 5 minute read time at 30° C.
(§1) The compound numbers correspond to the compound numbers in Table 1.

Aurora2 = biological target: T1, Aurora2 (Homo sapiens, UniProt O14965); test: Aurora2 inhibition assay (coupled enzyme assay); conditions: 800 μM peptide LRRASLG, 70 nM Aurora2, 30° C.
T1 sequence (O14965 1-403): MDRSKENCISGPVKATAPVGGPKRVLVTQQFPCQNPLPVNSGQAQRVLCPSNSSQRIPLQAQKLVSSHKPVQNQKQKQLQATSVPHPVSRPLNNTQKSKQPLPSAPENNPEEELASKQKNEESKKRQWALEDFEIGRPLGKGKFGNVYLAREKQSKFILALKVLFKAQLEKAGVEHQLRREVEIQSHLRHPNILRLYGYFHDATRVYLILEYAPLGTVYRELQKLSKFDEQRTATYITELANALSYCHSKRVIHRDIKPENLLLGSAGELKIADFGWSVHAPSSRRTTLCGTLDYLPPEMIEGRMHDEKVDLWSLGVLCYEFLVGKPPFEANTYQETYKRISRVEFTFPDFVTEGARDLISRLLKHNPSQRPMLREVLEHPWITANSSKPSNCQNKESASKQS
Experimental: Compounds are screened in the following manner for their ability to inhibit Aurora2 using a standard coupled enzyme assay (Fox et al (1998). Protein Sci 7, 2246). To an assay stock buffer solution containing 0.1M HEPES 7.5, 10 mM MgCl2, 1 mM DTT, 25 mM NaCl, 2.5 mM prosphoenolpyruvate, […], […] pyruvate kinase, […] lactate dehydrogenase, […], and 800 μM peptide (LRRASLG, American Peptide, Sunnyvale, Calif.) is added a DMSO solution of a compound of the present invention to a final concentration of 30 μM. The resulting mixture is incubated at 30° C. for 10 minutes. The reaction was initiated by the addition of 10 μL of Aurora2 stock solution to give a final concentration of 70 nM in the assay. The rates of reaction are obtained by monitoring absorbance at 340 nm over a 5 minute read time at 30° C. using a BioRad Ultramark plate reader (Hercules, Calif.). The IC50 values are determined from the rate data as a function of inhibitor concentration.
as §1

Syk = Syk (Homo sapiens, UniProt P43405); test: Syk inhibition assay (coupled enzyme assay); conditions: 200 μM ATP, 4 μM poly Gly-Tyr peptide, 30° C.
Experimental: Reactions were carried out in 100 mM HEPES pH 7.5, 10 mM MgCl2, 25 mM NaCl, 1 mM DTT and 1.5% DMSO. Final substrate .concentrations in the assay were 200 μM ATP (Sigmachemical Co.) and 4 μM poly Gly-Tyr peptide (Sigma Chemical Co.). Assays were carried out at 30° C. and 200 nM Syk. Final concentrations of the components of the coupled enzyme system were 2.5 mM phosphoenolpyruvate, 300 μM NADH, 30 μg/ml pyruvate kinase and 10 μg/ml lactate dehydrogenase.
An assay stock buffer solution was prepared containing all of the reagents listed above, with the exception of Syk, DTT and the test compound of interest. 56 μl of the test reaction was placed in a 96 well plate followed by the addition of 1 μl of 2 mM DMSO stock containing the test compound (final compound concentration 30 μM). […] Rates of reaction were obtained using a BioRad Ultramark plate reader (Hercules, Calif.) over a 5 minute read time at 30° C.
as §1

Sequence of GSK3-β (AA 1-420) (P49841 whole entry, the tested form may be a part): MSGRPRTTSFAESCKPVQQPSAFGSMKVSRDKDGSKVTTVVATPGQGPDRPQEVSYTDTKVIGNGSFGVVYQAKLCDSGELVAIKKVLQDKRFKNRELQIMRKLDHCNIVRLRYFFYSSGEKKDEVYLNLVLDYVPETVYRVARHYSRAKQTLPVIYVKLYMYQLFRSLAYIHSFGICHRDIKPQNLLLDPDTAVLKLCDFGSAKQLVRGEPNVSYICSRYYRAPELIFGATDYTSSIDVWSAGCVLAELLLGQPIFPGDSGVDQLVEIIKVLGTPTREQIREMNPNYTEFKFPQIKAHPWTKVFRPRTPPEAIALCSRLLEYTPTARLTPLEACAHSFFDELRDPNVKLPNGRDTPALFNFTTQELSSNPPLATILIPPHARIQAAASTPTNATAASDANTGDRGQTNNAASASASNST

Row | SMILES | Ki (GSK3-β (AA 1-420)) [nM] | IC50 (Aurora2) [nM] | IC50 (Syk) [nM]
1 | Ic1cccc(Nc2nccc(-c3nccs3)n2)c1 [Compound I-31] | < 100 | < 500 | < 500
2 | O=[N+]([O-])c1ccccc1COc1cccc(Nc2nccc(-c3nccs3)n2)c1 [Compound I-35] | < 100 | > 2000 | > 2000
3 | Clc1ccc(COc2cccc(Nc3nccc(-c4nccs4)n3)c2)cc1Cl [Compound I-2] | > 1000 | > 2000 | > 2000
4 | COc1cccc(Nc2nccc(-c3nccs3)n2)c1 [Compound I-25] | < 100 | 500 to 2000 | < 500
5 | FC(F)(F)c1cccc(Nc2nccc(-c3nccs3)n2)c1 [Compound I-37] | < 100 | 500 to 2000 | < 500
6 | Clc1cccc(Nc2nccc(-c3nccs3)n2)c1 [Compound I-22] | < 100 | < 500 | < 500
7 | c1ccc(Oc2cccc(Nc3nccc(-c4nccs4)n3)c2)cc1 [Compound I-4] | < 100 | 500 to 2000 | 500 to 2000
8 | Nc1cccc(COc2cccc(Nc3nccc(-c4nccs4)n3)c2)c1 [Compound I-14] | < 100 | 500 to 2000 | 500 to 2000
9 | O=[N+]([O-])c1cccc(Nc2nccc(-c3nccs3)n2)c1 [Compound I-16] | > 1000 | < 500 | 500 to 2000
10 | CS(=O)(=O)c1ccc(COc2cccc(Nc3nccc(-c4nccs4)n3)c2)cc1 [Compound I-5] | < 100 | > 2000 | < 500
11 | c1cc(Nc2nccc(-c3nccs3)n2)cc(OCCn2cccc2)c1 [Compound I-29] | < 100 | < 500 | < 500
12 | Oc1cccc(Nc2nccc(-c3nccs3)n2)c1 [Compound I-11] | < 100 | < 500 | < 500
13 | Brc1cccc(Nc2nccc(-c3nccs3)n2)c1 [Compound I-34] | < 100 | < 500 | < 500
14 | c1cncc(COc2cccc(Nc3nccc(-c4nccs4)n3)c2)c1 [Compound I-23] | < 100 | < 500 | < 500
15 | c1cc(Nc2nccc(-c3nccs3)n2)cc(OCc2ccncc2)c1 [Compound I-8] | < 100 | < 500 | > 2000
16 | c1ccc(COc2cccc(Nc3nccc(-c4nccs4)n3)c2)cc1 [Compound I-7, (3-Benzyloxy-phenyl)-(4-thiazol-2-yl-pyrimidin-2-yl)-amine] |  | > 2000 | < 500
17 | Fc1cccc(Nc2nccc(-c3nccs3)n2)c1 [Compound I-19] | < 100 | 500 to 2000 | 500 to 2000
18 | c1cc(Nc2nccc(-c3nccs3)n2)cc(OCc2ccc3c(c2)OCO3)c1 [Compound I-17] | < 100 | < 500 | < 500

Continued, values first:

Row | Ki (GSK3-β (AA 1-420)) [nM] | IC50 (Aurora2) [nM] | IC50 (Syk) [nM] | SMILES
19 | < 100 | > 2000 | > 2000 | FC(F)(F)c1cccc(COc2cccc(Nc3nccc(-c4nccs4)n3)c2)c1 [Compound I-106]
20 | > 1000 | > 2000 | > 2000 | Clc1cccc(Cl)c1Nc1nccc(-c2nccs2)n1 [Compound I-61]
21 | < 100 | > 2000 | > 2000 | Clc1ccc(Nc2nccc(-c3nccs3)n2)cc1 [Compound I-46]
22 | < 100 | 500 to 2000 | > 2000 | Fc1ccc(Nc2nccc(-c3nccs3)n2)cc1F [Compound I-49]
23 | < 100 | < 500 | < 500 | NS(=O)(=O)c1ccc(Nc2nccc(-c3nccs3)n2)cc1 [Compound I-55]
24 | < 100 | > 2000 | > 2000 | Clc1cccc(COc2cccc(Nc3nccc(-c4nccs4)n3)c2)c1Cl [Compound I-112]
25 | < 100 | < 500 | < 500 | Cc1cc(C)cc(Nc2nccc(-c3nccs3)n2)c1 [Compound I-73]
26 |  | 500 to 2000 | < 500 | c1cncc(Oc2cccc(Nc3nccc(-c4nccs4)n3)c2)c1 [Compound I-50]
27 | < 100 | > 2000 | > 2000 | COC(=O)c1ccc(COc2cccc(Nc3nccc(-c4nccs4)n3)c2)cc1 [Compound I-82]
28 | < 100 | > 2000 | > 2000 | c1cc(Nc2nccc(-c3nccs3)n2)cc(OCC2CCCCC2)c1 [Compound I-76]
29 | < 100 | < 500 | < 500 | Nc1ccccc1COc1cccc(Nc2nccc(-c3nccs3)n2)c1 [Compound I-38]
30 |  | 500 to 2000 | < 500 | Nc1cccc(Oc2cccc(Nc3nccc(-c4nccs4)n3)c2)c1 [Compound I-62]
31 | < 100 | > 2000 | > 2000 | Fc1ccc(Nc2nccc(-c3nccs3)n2)cc1 [Compound I-43]
32 | < 100 | > 2000 | > 2000 | c1ccc2cc(Nc3nccc(-c4nccs4)n3)ccc2c1 [Compound I-52]
33 | < 100 | < 500 | < 500 | Fc1cccc(F)c1COc1cccc(Nc2nccc(-c3nccs3)n2)c1 [Compound I-94]
34 | < 100 | > 2000 | > 2000 | Fc1ccc(COc2cccc(Nc3nccc(-c4nccs4)n3)c2)cc1 [Compound I-109]
35 | > 1000 | > 2000 | > 2000 | Fc1cccc(F)c1Nc1nccc(-c2nccs2)n1 [Compound I-64]
36 | < 100 | 500 to 2000 | > 2000 | Clc1ccccc1COc1cccc(Nc2nccc(-c3nccs3)n2)c1 [Compound I-88]
37 | 100 to 1000 | < 500 | < 500 | Cc1ccc(Nc2nccc(-c3nccs3)n2)cc1 [Compound I-67]
38 | < 100 | > 2000 | > 2000 | Fc1cc(Nc2nccc(-c3nccs3)n2)cc(F)c1F [Compound I-58]
